The values below come from patent US20240316059A1, “PEPTIDE DRUG CONJUGATES” (Oncopeptides AB, priority 2021, published 2024).

In data set [1] the test system is U937. Put plainly: In vitro cytotoxicity, U937 (Histiocytic Lymphoma). The settings on record: Homo sapiens, U-937, 72 h, read-out: Cytotoxicity IC50, U937. Type of data set: cell-based. The method, then:
(§1) All cells were cultivated in RPMI medium 1640 (IX). All media was supplemented with 10 μg/μl penicillin/streptomycin, 10% heat inactivated FBS, 0.1 mM Sodium Pyruvate, 1×MEM NEAA (ThermoFisher) and 1 mM HEPES. The DERL-2 cells had higher FBS (20%) and 40 ng/mL IL-2 was added. hPBMCs were thawed and allowed to acclimatise overnight and then stimulated with 10 μg/mL PHA-M and 40 ng/mL IL-2 for 4 hours before being exposed to test compounds. All cells, except for hPBMCs, were grown to reach log phase before being exposed to the test compounds.
(§2) Test compounds were dissolved in 100% DMSO and added to a 384 assay plate. Additional DMSO was added to maintain the same final DMSO concentration (0.2%) in all wells. 25 μL cell suspension with a concentration of 100000 cells/mL was added to each well. The cells were cultured in a CO2 incubator at 37° C. for 72 h. Plates were equilibrated to room temperature for 30 minutes before adding 20 μL CellTiter-Glo® 2.0 (Promega) reagent to all wells. The plate was then allowed to stabilize for 20 minutes before recording the luminescence (Em filter 700 nm) in an Envision plate reader.

The subject of data set [2] is MM.1S cells. As to the kind of experiment: In vitro cytotoxic potency in MM.1S cell viability assay (CellTiter-Glo). Type of data set: cell-based, human. The settings on record: Homo sapiens, MM1.S, 72 h. A digest of the protocol:
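Log-phase MM.1S cells in supplemented RPMI 1640 were seeded at 100000 cells/mL with compound (0.2% DMSO final). After 72 h at 37 °C in CO2, viability was measured by CellTiter-Glo 2.0 luminescence.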

Data set [3] concerns SC-1. As to the kind of experiment: In vitro cytotoxicity, SC-1 (B cell Lymphoma). Type of data set: cell-based. The following applies: Homo sapiens, read-out: Cytotoxicity IC50, SC-1. The method, then:
as §1, §2

Data set [4] relates to SUP-T1. Put plainly: In vitro cytotoxicity, SUP-T1 (T cell Lymphoma). The following applies: Homo sapiens, read-out: Cytotoxicity IC50, SUP-T1. Type of data set: cell-based. The method, then:
as §1, §2

For data set [5], the system named is SK-MM-1. As to the kind of experiment: In vitro cytotoxicity, SK-MM-1 (Plasma Cell Leukemia). The settings on record: Homo sapiens, 72 h, read-out: Cytotoxicity IC50, SK-MM-1. Type of data set: cell-based. As to the method:
as §1, §2

Data set [6] concerns SU-DHL-8. As to the kind of experiment: In vitro cytotoxicity, SU-DHL-8 (B-cell non-Hodgkin Lymphoma). Type of data set: cell-based. The following applies: Homo sapiens, SU-DHL-8, 72 h, read-out: Cytotoxicity IC50, SU-DHL-8. As to the method:
as §1, §2

A short description of data set [7]: In vitro cytotoxicity, human peripheral blood mononuclear cells. Type of data set: cell-based. The settings on record: CellTiter-Glo 2.0, stimulated with PHA-M and IL-2, read-out: Cytotoxicity IC50, hPBMC. The method, then:
as §1, §2

Data set [8] relates to Toledo. Put plainly: In vitro cytotoxicity, Toledo (Diffuse Large B Cell Lymphoma). Type of data set: cell-based. The following applies: Homo sapiens, 72 h, read-out: Cytotoxicity IC50, Toledo. The method, then:
as §1, §2

Data set [9] has as its system RPMI-8226. As to the kind of experiment: In vitro cytotoxicity, RPMI-8226 (Multiple Myeloma, resistant). The settings on record: Homo sapiens, read-out: Cytotoxicity IC50, RPMI-8226. Type of data set: cell-based. The method, then: as §1, §2
Data set [10] has as its system DOHH-2. Put plainly: In vitro cytotoxicity, DOHH-2 (B Cell Lymphoma). Type of data set: cell-based. The following applies: Homo sapiens, DOHH-2, 72 h, read-out: Cytotoxicity IC50, DOHH-2. As to the method: as §1, §2
The subject of data set [11] is DERL-2. As to the kind of experiment: In vitro cytotoxicity, DERL-2 (T cell Lymphoma). Type of data set: cell-based. The settings on record: Homo sapiens, 72 h. The method, then: as §1, §2
Data set [12] concerns HG-3. Put plainly: In vitro cytotoxicity, HG-3 (Chronic Lymphocytic Leukemia). Type of data set: cell-based. The following applies: Homo sapiens, HG-3, 72 h, read-out: Cytotoxicity IC50, HG-3. As to the method:
as §1, §2

For data set [13], the system named is DNA prepared from MM.1S cells (nuclear HPRT and mitochondrial DNA). Put plainly: Direct DNA damage, PCR amplification of treated DNA (HPRT and mtDNA primers). The following applies: 0.25 μM compound, 30 minutes, 37° C., 1 μg DNA. Type of data set: biochemical, human. As to the method:
Method: DNA was prepared from MM.1S cells by QIAGEN genomic tip 20/G according to protocol described in Furda et al., Methods Mol Biol, 2012. 1 μg of DNA was treated with 0.25 μM compound for 30 minutes at 37° C. DMSO was used as control treatment. 20 ng of the treated DNA was PCR amplified using Phusion Hot Start II High Fidelity PCR Master Mix (Thermo Scientific) and primers directed to either HPRT or primers directed to mitochondrial DNA (mtDNA) was used, generating 10.4 or 8.9 kb fragments, respectively. The PCR reactions were separated on a 1% agarose gel and visualized by ChemiDoc™ MP Imaging System (BioRad). Example compounds 1, 2 and 38 were investigated, as were compounds 18 and 20, which are metabolites of compound 1. They were compared with bendamustine, melphalan and DMSO control. The results for compounds 1, 2, 18 and 20 with the HPRT primers are shown in FIG. 4(A); the results with the mtDNA primers are shown in FIG. 4(B).

Data set [14] relates to THP-1. Put plainly: In vitro cytotoxicity, THP-1 (Acute Myeloid Leukemia). Type of data set: cell-based. The following applies: Homo sapiens, THP-1; 72 h, CellTiter-Glo 2.0; read-out: Cytotoxicity IC50, THP-1. As to the method:
as §1, §2

Data set [15] deals with OPM-2. Put plainly: In vitro cytotoxicity, OPM-2 (Multiple Myeloma). Type of data set: cell-based. The settings on record: Homo sapiens, OPM-2; 72 h, CellTiter-Glo 2.0; read-out: Cytotoxicity IC50, OPM-2. As to the method:
as §1, §2

Data set [16] relates to KMS-12-BM. Put plainly: In vitro cytotoxicity, KMS-12-BM (Multiple Myeloma). Type of data set: cell-based. The settings on record: Homo sapiens, 72 h, CellTiter-Glo 2.0, read-out: Cytotoxicity IC50, KMS-12-BM. As to the method: as §1, §2
The test system of data set [17] is U266. Put plainly: In vitro cytotoxicity, U266 (Multiple Myeloma). Type of data set: cell-based. The settings on record: Homo sapiens, U-266; 72 h, CellTiter-Glo 2.0; read-out: Cytotoxicity IC50, U266. As to the method: as §1, §2
Data set [18] concerns EJM. As to the kind of experiment: In vitro cytotoxicity, EJM (Multiple Myeloma). Type of data set: cell-based. The settings on record: Homo sapiens, 72 h, CellTiter-Glo 2.0, read-out: Cytotoxicity IC50, EJM. As to the method:
as §1, §2

Data set [19] concerns AMO-1. As to the kind of experiment: In vitro cytotoxicity, AMO-1 (Multiple Myeloma). Type of data set: cell-based. The following applies: Homo sapiens, AMO1; 72 h, CellTiter-Glo 2.0; read-out: Cytotoxicity IC50, AMO-1. As to the method:
as §1, §2

A short description of data set [20]: In vitro cytotoxicity, BJ fibroblasts (normal cells). The following applies: human, CellTiter-Glo 2.0. Type of data set: cell-based. The method, then: as §1, §2
For data set [21], the system named is MM.1S cells. As to the kind of experiment: Cellular retention/efflux: intracellular and extracellular concentrations by LC-MS/MS. Type of data set: in vitro ADME, human. The settings on record: metabolites measured after treatment with the parent Example compound. The method, then:
Methods: MMA1S cells at 2×10^6 cells/mL were seeded at 250 μL per well in a 96-well plate. Cells were incubated in the presence of a test compound for 5, 15, and 60 min before pelleting cells by centrifugation at +4° C. for 5 min. Cell media was immediately harvested to a second plate and stored at −80° C. until further analysis. Pelleted cells were washed once with ice cold PBS before storage at −80° C. until further analysis.
Cells were lysed and protein in the media were precipitated using acetonitrile dimethylformamide, 9:1 containing internal standard. Samples were centrifuged and the supernatant was analyzed with LC-MS/MS (ACQUITY UPLC-Xevo TQ-S micro) to determine compound concentration.
Example compound 1, bendamustine and melphalan were used as test compounds.
Method: Method described in Biological example 3.
Example compounds 1, 2, 3, 4, 6, 7 and 10 were investigated. Intracellular metabolites are formed from all compounds tested. The compound used for cell treatment was metabolised to the ester-hydrolysed compound (here called Metabolite A) and to the amide-hydrolysed compound (called Metabolite B). The example compound structures and the structures of the two metabolites for the respective compounds were as shown in Table 4. The Metabolites B formed under the conditions tested were compounds with structure as Examples 17 and 18: […]

[22] abbreviates: read-out: Cytotoxicity IC50, MM.1S.
[23] abbreviates: read-out: Cytotoxicity IC50, DERL-2.

Molecules are shown by their SMILES. Read-outs that look alike come from different tables or passages of the source.

With `CCOC(=O)[C@H](Cc1nc2cc(N(CCCl)CCCl)ccc2n1C)NC(=O)[C@@H](N)CC(C)C` [Example 10, Ethyl (2S)-2-[[(2S)-2-amino-4-methyl-pentanoyl]amino]-3-[5-[bis(2-chloroethyl)amino]-1-methyl-benzimidazol-2-yl]propanoate], the IC50 in data set [1] was determined as 0.0194 µM; in data set [2] (setting [22]) it was 0.0192 µM; in [2] (read-out: MM.1S IC50), 0.0192 µM; in [3] (SC-1, 72 h), 0.169 µM; in data set [4] (SUP-T1, 72 h), 0.0356 µM; in [5], 0.0624 µM. In addition, the IC50 in [6] worked out at 0.0221 µM; in [8], 0.0085 µM; in data set [9] (RPMI-8226, 72 h), 0.335 µM; in [10] it was 0.0639 µM; in data set [11] (setting [23]), 0.0226 µM; in data set [12], 0.0713 µM. In addition, the IC50 at 72 h in [7] came to 0.0264 µM.
In the case of `CCOC(=O)[C@H](Cc1ccc(F)cc1)NC(=O)[C@@H](N)CCc1nc2cc(N(CCCl)CCCl)ccc2n1C` [Example 2, Ethyl (2S)-2-[[(2S)-2-amino-4-[5-[bis(2-chloroethyl)amino]-1-methyl-benzimidazol-2-yl]butanoyl]amino]-3-(4-fluorophenyl)propanoate], the IC50 in data set [1] worked out at 0.0142 µM; in data set [2] (setting [22]), 0.0078 µM; in data set [2] (read-out: MM.1S IC50), 0.0078 µM; in data set [3] (SC-1, 72 h), 0.021 µM; in data set [4] (SUP-T1, 72 h), 0.0178 µM; in data set [5], 0.0383 µM. The IC50 in data set [6] was determined as 0.0204 µM; in data set [8] it was 0.0066 µM; in [9] (RPMI-8226, 72 h), 0.0415 µM; in [10], 0.0053 µM; in data set [11] (setting [23]), 0.0078 µM; in [12], 0.0257 µM. In data set [7], the IC50 at 72 h was 0.0075 µM. Moreover, the “DNA damage on nuclear and mitochondrial DNA (PCR band)” value in data set [13] is on record as “strong DNA damaging effect”.
`N[C@@H](Cc1ccc(N(CCCl)CCCl)cc1)C(=O)O` [Melphalan, melphalan, reference compound]: the IC50 in data set [14] was 4.31 µM; in data set [2] (setting [22]), 4.25 µM; in data set [2] (read-out: MM.1S IC50) it was 4.25 µM; in [3] (SC-1, 72 h, CellTiter-Glo 2.0), 8.64 µM; in data set [15], 10.2 µM; in [4] (SUP-T1, 72 h, CellTiter-Glo 2.0) it was 2.96 µM. Moreover, the IC50 turned out to be 9.83 µM in [16]; 18.9 µM in data set [17]; 40 µM in data set [18]; 32.5 µM in data set [9] (RPMI-8226, 72 h, CellTiter-Glo 2.0); 8.34 µM in [19]; 1.88 µM in [11] (CellTiter-Glo 2.0, 20% FBS, 40 ng/mL IL-2, read-out: Cytotoxicity IC50, DERL-2). The concentration for half-maximal inhibition (IC50) at 72 h in data set [7] was 3.6 µM; in data set [20], 104 µM. The “DNA damage on nuclear and mitochondrial DNA (PCR band)” value in [13] is reported as “no or very minor effect on DNA damage”. In [21] (MM.1S cells incubated with test compound 5, 15, 60 min), the “Intracellular concentration (in words)” value is on record as “low intracellular concentration”. The “Extracellular concentration (in words)” value in data set [21] (media of MM.1S cells incubated with test compound 5, 15, 60 min) is “high and constant throughout the experiment”.
